Laboratory results published in ChEMBL document CHEMBL5325400 (Eur J Med Chem, 2023).

What was measured:
Format in all cases: functional, cell-based
HeLa = assay: Antiproliferative activity against human HeLa cells assessed as inhibition of cell growth measured after 48 hrs by MTT assay
MDA-MB-231 = assay: Antiproliferative activity against human MDA-MB-231 cells assessed as inhibition of cell growth measured after 48 hrs by MTT assay; conditions: MDA-MB-231, 48 h
SK-OV-3 = assay: Antiproliferative activity against human SK-OV-3 cells assessed as inhibition of cell growth measured after 48 hrs by MTT assay; conditions: SK-OV-3, 48 h
A549 = assay: Antiproliferative activity against human A549 cells assessed as inhibition of cell growth measured after 48 hrs by MTT assay; conditions: A549, 48 h
HepG2 = assay: Antiproliferative activity against human HepG2 cells assessed as inhibition of cell growth measured after 48 hrs by MTT assay; conditions: HepG2, 48 h
B16-F10 = assay: Antiproliferative activity against mouse B16-F10 cells assessed as inhibition of cell growth measured after 48 hrs by MTT assay; conditions: B16-F10, 48 h

## O=C(Nc1cccc(Nc2nc(Nc3cccc(C(F)(F)F)c3)nc3ccsc23)c1)C1CC1
HeLa
  IC50: > 1000 nM
MDA-MB-231
  IC50: > 1000 nM
SK-OV-3
  IC50: > 1000 nM
A549
  IC50: > 1000 nM
HepG2
  IC50: > 1000 nM
B16-F10
  IC50: > 1000 nM

## COc1cccc(Nc2cc(Nc3cccc(NC(=O)C(C)(C)C)c3)ncn2)c1
HeLa
  IC50: > 1000 nM
MDA-MB-231
  IC50: > 1000 nM
SK-OV-3
  IC50: > 1000 nM
A549
  IC50: > 1000 nM
HepG2
  IC50: > 1000 nM
B16-F10
  IC50: > 1000 nM

## COc1nc(Nc2cccc(NC(=O)C3CC3)c2)cc(Nc2cccc(C(F)(F)F)c2)n1
HeLa
  IC50: > 1000 nM
MDA-MB-231
  IC50: > 1000 nM
SK-OV-3
  IC50: > 1000 nM
A549
  IC50: > 1000 nM
HepG2
  IC50: > 1000 nM
B16-F10
  IC50: > 1000 nM

## CCC(=O)Nc1cccc(Nc2cc(Nc3cccc(OC)c3)ncn2)c1
HeLa
  IC50: 6.7 nM
MDA-MB-231
  IC50: > 1000 nM
SK-OV-3
  IC50: 14.1 nM
A549
  IC50: 273 nM
HepG2
  IC50: 99.3 nM
B16-F10
  IC50: 392 nM

## O=C(Nc1cccc(Nc2cc(N3CCOc4ccccc43)ncn2)c1)C1CC1
HeLa
  IC50: 349 nM
MDA-MB-231
  IC50: 563 nM
SK-OV-3
  IC50: 84.2 nM
A549
  IC50: > 1000 nM
HepG2
  IC50: 34.8 nM
B16-F10
  IC50: > 1000 nM

## COc1cccc(Nc2nc(Nc3cccc(NC(=O)C4CC4)c3)nc3sccc23)c1
HeLa
  IC50: > 1000 nM
MDA-MB-231
  IC50: > 1000 nM
SK-OV-3
  IC50: > 1000 nM
A549
  IC50: > 1000 nM
HepG2
  IC50: > 1000 nM
B16-F10
  IC50: > 1000 nM

## COc1cc(Nc2cc(Nc3cccc(NC(=O)C4CC4)c3)ncn2)ccc1Cl
HeLa
  IC50: 397 nM
MDA-MB-231
  IC50: 356 nM
SK-OV-3
  IC50: 811 nM
A549
  IC50: 547 nM
HepG2
  IC50: 374 nM
B16-F10
  IC50: 472 nM

## COc1cccc(Nc2cc(Nc3ccc(NC(=O)C4CC4)cc3)ncn2)c1
HeLa
  IC50: > 1000 nM
MDA-MB-231
  IC50: > 1000 nM
SK-OV-3
  IC50: > 1000 nM
A549
  IC50: > 1000 nM
HepG2
  IC50: > 1000 nM
B16-F10
  IC50: > 1000 nM

## CC(=O)c1cccc(Nc2cc(Nc3cccc(NC(=O)C4CC4)c3)ncn2)c1
HeLa
  IC50: 22.5 nM
MDA-MB-231
  IC50: 64.9 nM
SK-OV-3
  IC50: 31.6 nM
A549
  IC50: 509 nM
HepG2
  IC50: 127 nM
B16-F10
  IC50: 167 nM

## Cc1cccc2c1CCN2c1cc(Nc2cccc(NC(=O)C3CC3)c2)ncn1
HeLa
  IC50: > 1000 nM
MDA-MB-231
  IC50: > 1000 nM
SK-OV-3
  IC50: > 1000 nM
A549
  IC50: > 1000 nM
HepG2
  IC50: > 1000 nM
B16-F10
  IC50: > 1000 nM

## COc1cccc(Nc2cc(Nc3cccc(NS(=O)(=O)C4CC4)c3)ncn2)c1
HeLa
  IC50: 130 nM
MDA-MB-231
  IC50: 438 nM
SK-OV-3
  IC50: 56.8 nM
A549
  IC50: 81.6 nM
HepG2
  IC50: 284 nM
B16-F10
  IC50: 54.2 nM

## COc1cccc(Nc2nc(Nc3cccc(NC(=O)C4CC4)c3)c3sccc3n2)c1
HeLa
  IC50: > 1000 nM
MDA-MB-231
  IC50: > 1000 nM
SK-OV-3
  IC50: > 1000 nM
A549
  IC50: > 1000 nM
HepG2
  IC50: > 1000 nM
B16-F10
  IC50: > 1000 nM

## O=C(Nc1cccc(Nc2cc(Nc3cccc(C(F)F)c3)ncn2)c1)C1CC1
HeLa
  IC50: 48.5 nM
MDA-MB-231
  IC50: 38.7 nM
SK-OV-3
  IC50: 2.1 nM
A549
  IC50: 9.3 nM
HepG2
  IC50: 15.6 nM
B16-F10
  IC50: 61.3 nM

## COc1cccc(Nc2nc(Nc3cccc(NC(=O)C4CC4)c3)c3ccccc3n2)c1
HeLa
  IC50: > 1000 nM
MDA-MB-231
  IC50: > 1000 nM
SK-OV-3
  IC50: > 1000 nM
A549
  IC50: > 1000 nM
HepG2
  IC50: > 1000 nM
B16-F10
  IC50: > 1000 nM

## O=C(Nc1cccc(Nc2cc(N3CCc4c3cccc4C(F)(F)F)ncn2)c1)C1CC1
HeLa
  IC50: > 1000 nM
MDA-MB-231
  IC50: > 1000 nM
SK-OV-3
  IC50: > 1000 nM
A549
  IC50: > 1000 nM
HepG2
  IC50: > 1000 nM
B16-F10
  IC50: > 1000 nM

## COc1cc(Nc2cc(Nc3cccc(NC(=O)C4CC4)c3)ncn2)ccc1F
HeLa
  IC50: 65.9 nM
MDA-MB-231
  IC50: 107 nM
SK-OV-3
  IC50: 42.7 nM
A549
  IC50: 218 nM
HepG2
  IC50: 342 nM
B16-F10
  IC50: 199 nM

## Cc1cc(NC(=O)C2CC2)cc(Nc2cc(Nc3cccc(C(F)(F)F)c3)ncn2)c1
HeLa
  IC50: 499 nM
MDA-MB-231
  IC50: > 1000 nM
SK-OV-3
  IC50: 31.7 nM
A549
  IC50: > 1000 nM
HepG2
  IC50: 201 nM
B16-F10
  IC50: 443 nM

## COc1cccc(Nc2cc(Nc3cccc(C(=O)NC4CCCC4)c3)ncn2)c1
HeLa
  IC50: > 1000 nM
MDA-MB-231
  IC50: > 1000 nM
SK-OV-3
  IC50: > 1000 nM
A549
  IC50: > 1000 nM
HepG2
  IC50: > 1000 nM
B16-F10
  IC50: > 1000 nM

## Cc1c(F)cccc1Nc1cc(Nc2cccc(NC(=O)C3CC3)c2)ncn1
HeLa
  IC50: 62.2 nM
MDA-MB-231
  IC50: 23.4 nM
SK-OV-3
  IC50: 31.6 nM
A549
  IC50: 27.9 nM
HepG2
  IC50: 429 nM
B16-F10
  IC50: 17.8 nM

## COc1cccc(Nc2cc(Nc3cccc(NC(=O)C4CC4)c3)nc(C)n2)c1
HeLa
  IC50: 120 nM
MDA-MB-231
  IC50: > 1000 nM
SK-OV-3
  IC50: 156 nM
A549
  IC50: > 1000 nM
HepG2
  IC50: 93.2 nM
B16-F10
  IC50: 9.6 nM

## O=C(NCCCNc1cc(Nc2cccc(C(F)(F)F)c2)ncn1)C1CC1
HeLa
  IC50: > 1000 nM
MDA-MB-231
  IC50: > 1000 nM
SK-OV-3
  IC50: > 1000 nM
A549
  IC50: > 1000 nM
HepG2
  IC50: > 1000 nM
B16-F10
  IC50: > 1000 nM

## Cc1nc(Nc2cccc(NC(=O)C3CC3)c2)cc(Nc2cccc(C(F)(F)F)c2)n1
HeLa
  IC50: > 1000 nM
MDA-MB-231
  IC50: > 1000 nM
SK-OV-3
  IC50: 123 nM
A549
  IC50: > 1000 nM
HepG2
  IC50: 64.1 nM
B16-F10
  IC50: 562 nM
